Patent US5047512A, “Immobilized cyclophilin and methods of using such” (priority 1987, dated 1991)
“And” between values parts separate entries of the source, which are not always exact repeats. Equal entries are not always repeated. Where a SMILES comes first, the peptide text is derived from it. [ ]: non-standard residue; d: D form. NMe(dihydroBmt) = CCCC[C@@H](C)[C@@H](O)[C@H](NC)C(=O)O; NMeL = CN[C@@H](CC(C)C)C(=O)O; NMeV = CN[C@H](C(=O)O)C(C)C; Sar = CNCC(=O)O

Key:
[1] = Isoelectric point of cyclophilin; type: physicochemical
Method: The column was harvested at a flow rate of 1 ml/min. and the pH of each fraction was measured prior to titration with 1M potassium dihydrogen phosphate to pH 7.0.

[2] = target: T1, cyclophilin (Bos taurus, UniProt P62935); experiment: Cyclophilin affinity: enhancement of the intrinsic tryptophan fluorescence of cyclophilin by CsA or analogs; type: binding; settings: 5 ug/ml cyclophilin, pH 7.2; for Cyclophilin affinity 0.25 ug/ml: ligand 0.25 ug/ml; for Cyclophilin affinity 1.0 ug/ml: ligand 1.0 ug/ml
T1 construct: from tissue; host or cells: purified from tissue cytosol

[3] = Retention of analog relative to CsA on a uBondapak phenyl column as a measure of hydrophobicity; type: physicochemical; settings: isocratic 60% acetonitrile, 1 ml/min
[4] = CsA binding activity (3H-CsA binding, Sephadex LH-20 columns); settings: for CsA binding specific activity: purified bovine isoforms, weak cation exchange HPLC; for CsA bound per mole of cyclophilin species: stoichiometry, major and minor isoforms
Method: A typical procedure for the purification of cyclophilin will next be described. […] After addition of 10 ul ^3 H-CsA (50 ug/ml; 0.05 uCi/ml in 40% ethanol), tubes were agitated gently and 50 ul was applied to 1.8 ml Sephadex LH-20 (hydroxypropylated […]) columns pre-equilibrated with assay buffer. The samples were then washed into the columns with 500 ul of assay buffer followed by an additional 500 ul to elute cyclophilin-CsA complexes. Elution fractions were diluted in 5.6 ml Liquiscint (a fluor-containing liquid to permit β-scintillation counting of ^3 H) and the binding activity quantified as equal to (cpm - background).div.(quench correction×^3 H-CsA specific activity)×(volume of test sample).
The isoforms of bovine cyclophilin were separated by weak cation exchange high pressure liquid chromatography. […] Samples were injected onto a weak cation exchange HPLC column (Synchropak CM300:[…]; pore size 300 Å) pre-equilibrated with 5 mM potassium phosphate, 5 mM 2-ME, pH 7.2. The isoforms were eluted at 1 ml/min with a concave gradient (5 mM potassium phosphate, pH 7.2 to 175 mM NaCl, 5 mM potassium phosphate, pH 7.2) generated with a gradient programmer. Milligram quantities of the bovine cyclophilin isoforms were obtained by automating injection, gradient elution and collection. […] The disassociation constant is about 2×10^-7 M.

[5] = Stability of CsA binding activity of cyclophilin; type: physicochemical
Description: Similarly, it can be used to purify the ligand from a composition containing ligand. For example, the cyclophilin can be used for purifying CsA or related structures from a yeast fermentation broth in which the CsA is produced. Further, it can be used to select compounds which bind to cyclophilin as a screening test for identifying new immunosuppressant drugs. In these various procedures, it is preferred, although not required, to immobilize the cyclophilin. This can be accomplished by any procedure known in the art. A particularly useful immobilizing matrix is agarose having carboxy terminated C12 spacer arm esterfied to N-hydroxysuccinimide. This matrix is commercially available under the name Affigel-10 (Biorad). The immobilized cyclophilin is prepared by effecting a transamination with the N-hydroxysuccinimide being split off and the cyclophilin replacing it. The binding of the cyclophilin to this matrix can result in a marked stabilization of the bound activity through a three-dimensional stabilization achieved by multiple bonds through the ε-amino groups of lysine.

T1 sequence (P62935 whole entry): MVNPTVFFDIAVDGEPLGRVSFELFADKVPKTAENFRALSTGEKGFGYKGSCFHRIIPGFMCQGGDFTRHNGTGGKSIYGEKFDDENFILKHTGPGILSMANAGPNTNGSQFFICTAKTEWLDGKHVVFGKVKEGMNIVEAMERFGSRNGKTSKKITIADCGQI

Compound | Cyclophilin affinity 0.25 ug/ml [2] | Cyclophilin affinity 1.0 ug/ml [2] | Retention time of analog relative to CsA [3] | further results
Human cyclophilin: N-terminal sequence (72 residues) of bovine and human cyclophilin is completely identical | – | – | – | isoelectric point [1]: 7.4 and 9.1
C/C=C/C[C@@H](C)[C@@H](O)[C@H]1C(=O)N[C@@H](C(C)C)C(=O)N(C)CC(=O)N(C)[C@@H](CC(C)C)C(=O)N[C@@H](C(C)C)C(=O)N(C)[C@@H](CC(C)C)C(=O)N[C@@H](C)C(=O)N[C@H](C)C(=O)N(C)[C@@H](CC(C)C)C(=O)N(C)[C@@H](CC(C)C)C(=O)N(C)[C@@H](C(C)C)C(=O)N1C [CsD] | 0.21 | 0.69 | 1.20 | –
cyclophilin: homogeneous cytosolic binding protein which has a molecular weight of approximately 17,600 daltons | – | – | – | CsA binding specific activity of purified cyclophilin ([4]; purified cyclophilin): above 50 ug per mg of protein; stability of CsA binding activity ([5]; temperature, pH, proteases, in words): unstable at 56 °C and at pH 4 or 9.5, and sensitive to proteases, i.e. trypsin; irreversible loss of CsA binding activity ([5]; unbound cyclophilin in solution with 8M urea, after dialysis): at least 60%; loss of CsA binding activity in 30% acetonitrile ([5]; unbound cyclophilin, 10 minute exposure to 30% acetonitrile): complete loss of activity
CCCC[C@@H](C)[C@@H](O)[C@H]1C(=O)N[C@@H](C(C)C)C(=O)N(C)CC(=O)N(C)[C@@H](CC(C)C)C(=O)N[C@@H](C(C)C)C(=O)N(C)[C@@H](CC(C)C)C(=O)N[C@@H](C)C(=O)N[C@H](C)C(=O)N(C)[C@@H](CC(C)C)C(=O)N(C)[C@@H](CC(C)C)C(=O)N(C)[C@@H](C(C)C)C(=O)N1C [Dihydro-CsD] (cyclo(A[dA][NMeL][NMeL][NMeV][NMe(dihydroBmt)]V[Sar][NMeL]V[NMeL])) | 0.19 | 0.72 | 1.28 | –
C/C=C/C[C@@H](C)[C@@H](O)[C@H]1C(=O)N[C@@H](CCC)C(=O)N(C)CC(=O)N(C)[C@@H](CC(C)C)C(=O)N[C@@H](C(C)C)C(=O)N(C)[C@@H](CC(C)C)C(=O)N[C@@H](C)C(=O)N[C@H](C)C(=O)N(C)[C@@H](CC(C)C)C(=O)N(C)[C@@H](CC(C)C)C(=O)N(C)[C@@H](C(C)C)C(=O)N1C [CsG] | 0.30 | 0.87 | 1.14 | –
Bovine cyclophilin: Bovine thymocyte cyclophilin contains 163 amino acid residues; sequence in FIG. 1 | – | – | – | isoelectric point [1]: about 9.6
minor isoform of cyclophilin: minor isoform of bovine cyclophilin separated by weak cation exchange HPLC | – | – | – | CsA binding specific activity [4]: 67 ug per mg of protein; CsA bound per mole of cyclophilin species [4]: about one
major isoform of cyclophilin: major isoform of bovine cyclophilin separated by weak cation exchange HPLC | – | – | – | CsA binding specific activity [4]: 77 ug per mg of protein; CsA bound per mole of cyclophilin species [4]: about one
C/C=C/C[C@@H](C)[C@@H](O)[C@H]1C(=O)N[C@@H]([C@@H](C)O)C(=O)N(C)CC(=O)N(C)[C@@H](CC(C)C)C(=O)N[C@@H](C(C)C)C(=O)N(C)[C@@H](CC(C)C)C(=O)N[C@@H](C)C(=O)N[C@H](C)C(=O)N(C)[C@@H](CC(C)C)C(=O)N(C)[C@@H](CC(C)C)C(=O)N(C)[C@@H](C(C)C)C(=O)N1C [CsC, cyclosporin C] | 0.31 | 0.69 | 0.70 | –
C/C=C/C[C@@H](C)[C@@H](OC(C)=O)[C@H]1C(=O)N[C@@H](CC)C(=O)N(C)CC(=O)N(C)[C@@H](CC(C)C)C(=O)N[C@@H](C(C)C)C(=O)N(C)[C@@H](CC(C)C)C(=O)N[C@@H](C)C(=O)N[C@H](C)C(=O)N(C)[C@@H](CC(C)C)C(=O)N(C)[C@@H](CC(C)C)C(=O)N(C)[C@@H](C(C)C)C(=O)N1C [O-Acetyl-CsA] | -0.02 | -0.03 | 1.69 | –
CCCC[C@@H](C)[C@@H](O)[C@H]1C(=O)N[C@@H]([C@@H](C)O)C(=O)N(C)CC(=O)N(C)[C@@H](CC(C)C)C(=O)N[C@@H](C(C)C)C(=O)N(C)[C@@H](CC(C)C)C(=O)N[C@@H](C)C(=O)N[C@H](C)C(=O)N(C)[C@@H](CC(C)C)C(=O)N(C)[C@@H](CC(C)C)C(=O)N(C)[C@@H](C(C)C)C(=O)N1C [Dihydro-CsC] (cyclo(A[dA][NMeL][NMeL][NMeV][NMe(dihydroBmt)]T[Sar][NMeL]V[NMeL])) | 0.33 | 0.70 | 0.79 | –
